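Dose response: 5 concentrations. Exposure: 48 h. Format: 96-well plates. Endpoint: linear interpolation; highest concentration if not reached. The concentration for 50% growth inhibition is given as GI50.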 Calls of active or inactive are those of the source. No stated cut-off is given here; in the data, active = GI50 up to about 1.1 µM and inactive = higher.
Assays:
Test in all cases: DTP human tumour cell line panel, 48 h
NCI/ADR-RES = test system: NCI/ADR-RES
COLO 205 = test system: COLO 205
SR = test system: SR
SF-539 = test system: SF-539
SN12C = test system: SN12C
IGROV-1 = test system: IGROV-1
NCI-H460 = test system: NCI-H460
T47D = test system: T47D
RXF 393 = test system: RXF 393
CAKI-1 = test system: CAKI-1
SF-268 = test system: SF-268
Hs-578T = test system: Hs-578T
U-251 = test system: U-251
HT-29 = test system: HT-29
DU-145 = test system: DU-145
PC-3 = test system: PC-3
SK-MEL-28 = test system: SK-MEL-28
OVCAR-3 = test system: OVCAR-3
UACC-257 = test system: UACC-257
K562 = test system: K562
MDA-N = test system: MDA-N
MDA-MB-231 = test system: MDA-MB-231
RPMI-8226 = test system: RPMI-8226
HCC 2998 = test system: HCC 2998
HOP-92 = test system: HOP-92
SF-295 = test system: SF-295
786-0 = test system: 786-0
A549 = test system: A549
EKVX = test system: EKVX
UACC-62 = test system: UACC-62
HCT-15 = test system: HCT-15
BT-549 = test system: BT-549
MOLT-4 = test system: MOLT-4
SK-OV-3 = test system: SK-OV-3
SW-620 = test system: SW-620
HOP-62 = test system: HOP-62
SNB-75 = test system: SNB-75
HCT-116 = test system: HCT-116
MCF7 = test system: MCF7
MDA-MB-435 = test system: MDA-MB-435
TK-10 = test system: TK-10
SK-MEL-2 = test system: SK-MEL-2
OVCAR-4 = test system: OVCAR-4
KM12 = test system: KM12
OVCAR-8 = test system: OVCAR-8
SK-MEL-5 = test system: SK-MEL-5
SNB-19 = test system: SNB-19
ACHN = test system: ACHN
NCI-H226 = test system: NCI-H226
LOX IMVI = test system: LOX IMVI
M14 = test system: M14
A498 = test system: A498
NCI-H522 = test system: NCI-H522
Malme-3M = test system: Malme-3M
UO-31 = test system: UO-31
NCI-H23 = test system: NCI-H23
OVCAR-5 = test system: OVCAR-5

CC1(C)SC2C(C(=O)O)N=C(Cc3ccccc3)N2C1C(=O)O (configuration not stated)
GI50 (NCI/ADR-RES): 33.9 µM (inactive) | GI50 (COLO 205): > 100 µM (inactive) | GI50 (SR): 33.9 µM (inactive) | GI50 (SF-539): 30.8 µM (inactive) | GI50 (SN12C): 35 µM (inactive) | GI50 (IGROV-1): > 100 µM (inactive) | GI50 (NCI-H460): 45.1 µM (inactive) | GI50 (T47D): 24.4 µM (inactive) | GI50 (RXF 393): 34.6 µM (inactive) | GI50 (CAKI-1): 43.7 µM (inactive) | GI50 (SF-268): 30.1 µM (inactive) | GI50 (Hs-578T): 29.4 µM (inactive) | GI50 (U-251): 32.7 µM (inactive) | GI50 (HT-29): 13.6 µM (inactive) | GI50 (DU-145): 56.6 µM (inactive) | GI50 (PC-3): 42.7 µM (inactive) | GI50 (SK-MEL-28): 52.4 µM (inactive) | GI50 (OVCAR-3): 49 µM (inactive) | GI50 (UACC-257): 21.9 µM (inactive) | GI50 (K562): 62.7 µM (inactive) | GI50 (MDA-N): 49 µM (inactive) | GI50 (MDA-MB-231): 43.3 µM (inactive) | GI50 (RPMI-8226): 46.8 µM (inactive) | GI50 (HCC 2998): 25.3 µM (inactive) | GI50 (HOP-92): 42.8 µM (inactive) | GI50 (SF-295): 31.7 µM (inactive) | GI50 (786-0): 19.8 µM (inactive) | GI50 (A549): 31.8 µM (inactive) | GI50 (EKVX): 3.97 µM (inactive) | GI50 (UACC-62): > 100 µM (inactive) | GI50 (HCT-15): 81.5 µM | GI50 (BT-549): 31 µM (inactive) | GI50 (MOLT-4): > 100 µM (inactive) | GI50 (SK-OV-3): 41.2 µM (inactive) | GI50 (SW-620): 60.3 µM (inactive) | GI50 (HOP-62): 32.1 µM (inactive) | GI50 (SNB-75): 19.6 µM (inactive) | GI50 (HCT-116): 24.9 µM (inactive) | GI50 (MCF7): 34.2 µM (inactive) | GI50 (MDA-MB-435): 40.7 µM (inactive) | GI50 (TK-10): 20.4 µM (inactive) | GI50 (SK-MEL-2): > 100 µM (inactive) | GI50 (OVCAR-4): 92.3 µM (inactive) | GI50 (KM12): > 100 µM (inactive) | GI50 (OVCAR-8): 37.3 µM (inactive) | GI50 (SK-MEL-5): > 100 µM (inactive) | GI50 (SNB-19): 32.5 µM (inactive) | GI50 (ACHN): 38.9 µM (inactive) | GI50 (NCI-H226): 29.8 µM (inactive) | GI50 (LOX IMVI): 25.5 µM (inactive) | GI50 (M14): 37.2 µM (inactive) | GI50 (A498): 53.7 µM (inactive) | GI50 (NCI-H522): 51.3 µM (inactive) | GI50 (Malme-3M): 62.2 µM (inactive) | GI50 (UO-31): 19.4 µM (inactive) | GI50 (NCI-H23): 86.3 µM (inactive) | GI50 (OVCAR-5): 36.8 µM (inactive)
